Strand notation (5' to 3'): a small letter for the sugar, then the base; units joined by * are phosphorothioate-linked, units joined directly phosphodiester-linked; [ ] holds rarer units or linkages, { } end groups; capitals alone tell only the bases. e = 2'-O-(2-methoxyethyl) (MOE); [5mC] = 5-methylcytosine; d = 2'-deoxy (DNA)
Columns and labels:
Format in all cases: cell-based
human Factor 7 mRNA [1] = assay: Dose-dependent antisense inhibition of human Factor 7 in HepB3 cells, lipofectin; conditions: HepB3 cells, approx. 16 hours (Table 14)
In short: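 HepB3 cells (4,000/well) lipofectin-transfected with antisense oligonucleotide at 3.125 or 6.25 up to 100 nM for ~16 h. Factor 7 mRNA measured by real-time RT-PCR with primer probe set RTS 2927, adjusted to RIBOGREEN total RNA; expressed as percent inhibition versus untreated control cells.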

human Factor 7 mRNA [2] = assay: Antisense inhibition of human Factor 7 mRNA in HepB3 cells, 50 nM antisense oligonucleotide, lipofectin; conditions: for % Inhibition of human Factor 7 mRNA levels: gapmers targeted to nucleobases 4868 to 4899 of SEQ ID NO: 1, Table 8; for % Inhibition: Table 13 (microwalk), 50 nM, lipofectin, approximately 24 hours
In short: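 Readout is percent reduction of Factor 7 message compared with untreated cells, after correction for total RNA content quantified by RIBOGREEN®. Cultures were seeded at 4,000 cells per well and treated for about 24 hours before RNA extraction.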

human Factor 7 mRNA [3] = assay: Dose-dependent antisense inhibition of human Factor 7 in HepB3 cells, electroporation
Experimental: (§1) The gapmers were also transfected via electroporation and their dose-dependent inhibition of human Factor 7 mRNA was measured. Cells were plated at a density of 20,000 cells per well and transfected via electroporation with 3.125 μM, 6.25 μM, 12.5 μM, 25 μM, 50 μM, and 100 μM concentrations of antisense oligonucleotide, as specified in Table 15. After a treatment period of approximately 16 hours, RNA was isolated from the cells and Factor 7 mRNA levels were measured by quantitative real-time PCR. Human Factor 7 primer probe set RTS 2927 was used to measure mRNA levels. Factor 7 mRNA levels were adjusted according to total RNA content, as measured by RIBOGREEN®. Results are presented as percent inhibition of Factor 7, relative to untreated control cells.
as §1, with “Cells were” for “The gapmers were also transfected via electroporation and their dose-dependent inhibition of human Factor 7 mRNA was measured. Cells were”, “in […]. After a” for “in Table 15. After a”, “cells and human Factor 7” for “cells and Factor 7”

[4] = 3.125 μM, approx. 16 hours (Table 15, Example 7)
[5] = 3.125 μM, approx. 16 hours (Table 16, Example 8 confirmation)
[6] = 6.25 μM, approx. 16 hours (Table 15, Example 7)
[7] = 6.25 μM, approx. 16 hours (Table 16, Example 8 confirmation)
[8] = 12.5 μM, approx. 16 hours (Table 15, Example 7)
[9] = 12.5 μM, approx. 16 hours (Table 16, Example 8 confirmation)
[10] = 25 μM, approx. 16 hours (Table 15, Example 7)
[11] = 25 μM, approx. 16 hours (Table 16, Example 8 confirmation)
[12] = 50 μM, approx. 16 hours (Table 15, Example 7)
[13] = 50 μM, approx. 16 hours (Table 16, Example 8 confirmation)
[14] = 100 μM, approx. 16 hours (Table 15, Example 7)
[15] = 100 μM, approx. 16 hours (Table 16, Example 8 confirmation)

| Substance | percent inhibition of Factor 7 mRNA, relative to untreated control cells (human Factor 7 mRNA [1]; 3.125 nM) [%] | percent inhibition of Factor 7 mRNA, relative to untreated control cells (human Factor 7 mRNA [1]; 12.5 nM) [%] | percent inhibition of Factor 7 mRNA, relative to untreated control cells (human Factor 7 mRNA [1]; 25 nM) [%] | percent inhibition of Factor 7 mRNA, relative to untreated control cells (human Factor 7 mRNA [1]; 50 nM) [%] | percent inhibition of Factor 7 mRNA, relative to untreated control cells (human Factor 7 mRNA [1]; 100 nM) [%] | percent inhibition of Factor 7 mRNA, relative to untreated control cells (human Factor 7 mRNA [1]) [%] | % Inhibition of human Factor 7 mRNA levels (human Factor 7 mRNA [2]) [%] | percent inhibition of Factor 7 mRNA, relative to untreated control cells (human Factor 7 mRNA [3]; [4]) [%] | percent inhibition of Factor 7 mRNA, relative to untreated control cells (human Factor 7 mRNA [3]; [5]) [%] | percent inhibition of Factor 7 mRNA, relative to untreated control cells (human Factor 7 mRNA [3]; [6]) [%] | percent inhibition of Factor 7 mRNA, relative to untreated control cells (human Factor 7 mRNA [3]; [7]) [%] | percent inhibition of Factor 7 mRNA, relative to untreated control cells (human Factor 7 mRNA [3]; [8]) [%] | percent inhibition of Factor 7 mRNA, relative to untreated control cells (human Factor 7 mRNA [3]; [9]) [%] | percent inhibition of Factor 7 mRNA, relative to untreated control cells (human Factor 7 mRNA [3]; [10]) [%] | percent inhibition of Factor 7 mRNA, relative to untreated control cells (human Factor 7 mRNA [3]; [11]) [%] | percent inhibition of Factor 7 mRNA, relative to untreated control cells (human Factor 7 mRNA [3]; [12]) [%] | percent inhibition of Factor 7 mRNA, relative to untreated control cells (human Factor 7 mRNA [3]; [13]) [%] | percent inhibition of Factor 7 mRNA, relative to untreated control cells (human Factor 7 mRNA [3]; [14]) [%] | percent inhibition of Factor 7 mRNA, relative to untreated control cells (human Factor 7 mRNA [3]; [15]) [%] | further results |
| --- | --- | --- | --- | --- | --- | --- | --- | --- | --- | --- | --- | --- | --- | --- | --- | --- | --- | --- | --- | --- |
| 422292 (antisense eG*eT*dT*d[5mC]*dT*dG*d[5mC]*dA*dG*dG*dA*dG*d[5mC]*dG*dG*e[5mC]*e[5mC]*eT*eA*eA) [compound 422292] | 13 | 44 | 63 | 81 | 83 | 21 | 75 | 36 | 31 | 25 | 40 | 47 | 68 | 59 | 75 | 75 | 82 | 86 | 83 |  |
| 422215 (antisense eG*eT*eT*d[5mC]*dT*dG*d[5mC]*dA*dG*dG*dA*dG*d[5mC]*dG*dG*d[5mC]*d[5mC]*eT*eA*eA) [compound 422215] | 13 | 54 | 65 | 84 | 82 | 30 | 73 | 11 |  | 9 |  | 31 |  | 50 |  | 68 |  | 84 |  |  |
| 422177 (antisense e[5mC]*e[5mC]*e[5mC]*dG*d[5mC]*d[5mC]*dG*dG*d[5mC]*dT*d[5mC]*dT*dG*d[5mC]*dT*d[5mC]*dA*eT*e[5mC]*e[5mC]) [compound 422177] | 12 | 44 | 64 | 81 | 88 | 24 |  | 3 |  | 10 |  | 29 |  | 21 |  | 31 |  | 63 |  | % Inhibition (human Factor 7 mRNA levels) (human Factor 7 mRNA [2]; oligonucleotides targeted to nucleobases 13760 to 13789 of SEQ ID NO: 1 (Table 10)): 74% |
| 422096 (antisense eA*eG*eA*e[5mC]*eA*dA*dT*dG*dG*dT*d[5mC]*dA*dG*dG*dG*e[5mC]*eT*eG*eG*eT) [compound 422096] | 17 | 43 | 60 | 68 | 82 | 23 |  | 26 |  | 30 |  | 46 |  | 50 |  | 62 |  | 85 |  | % Inhibition (human Factor 7 mRNA levels) (human Factor 7 mRNA [2]; oligonucleotides targeted to nucleobases 11830 to 11869 of SEQ ID NO: 1 (Table 9)): 76% |
| 422140 (antisense eG*eT*eT*e[5mC]*eT*dG*d[5mC]*dA*dG*dG*dA*dG*d[5mC]*dG*dG*e[5mC]*e[5mC]*eT*eA*eA) [compound 422140] | 18 | 49 | 64 | 74 | 74 | 35 | 74 | 29 |  | 34 |  | 51 |  | 64 |  | 69 |  | 77 |  |  |
| 422087 (antisense e[5mC]*eA*eT*eG*e[5mC]*dA*dT*dG*dG*dT*dG*dA*dT*dG*d[5mC]*eT*eT*e[5mC]*eT*eG) [compound 422087] | 14 | 51 | 73 | 83 | 90 | 24 |  | 22 | 19 | 26 | 38 | 48 | 66 | 57 | 75 | 72 | 80 | 80 | 87 | % Inhibition (human Factor 7 mRNA [2]): 83% |
| 422150 (antisense eG*e[5mC]*eA*dT*dG*dG*dT*dG*dA*dT*dG*d[5mC]*dT*dT*d[5mC]*dT*dG*eA*eA*eT) [compound 422150] | 9 | 38 | 59 | 79 | 87 | 23 |  | 17 | 0 | 20 | 31 | 40 | 53 | 54 | 67 | 68 | 77 | 83 | 86 | % Inhibition (human Factor 7 mRNA [2]): 74% |

From patent US9029337B2, “Modulation of factor 7 expression” (Isis Pharmaceuticals, Inc., priority 2007, dated 2015)
